Measured values from PubChem BioAssay (NCI).
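Grown in 96-well plates, cells were treated for 48 hours with each compound at five concentrations. Insufficient inhibition: endpoint recorded as highest concentration tested. TGI: concentration producing complete growth inhibition.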

Experiments:
Experiment in all cases: DTP human tumour cell line panel, 48 h
CAKI-1 renal = tested on: CAKI-1 renal
NCI-H522 lung = tested on: NCI-H522 lung
HCT-15 colon = tested on: HCT-15 colon
NCI-H226 lung = tested on: NCI-H226 lung
HS 578T breast = tested on: HS 578T breast
SF-295 CNS = tested on: SF-295 CNS
UACC-257 melanoma = tested on: UACC-257 melanoma
K-562 leukemia = tested on: K-562 leukemia
SNB-19 CNS = tested on: SNB-19 CNS
COLO 205 colon = tested on: COLO 205 colon
OVCAR-3 ovarian = tested on: OVCAR-3 ovarian
RXF 393 renal = tested on: RXF 393 renal
HOP-92 NSCLC = tested on: HOP-92 NSCLC
SK-MEL-28 melanoma = tested on: SK-MEL-28 melanoma
HOP-62 NSCLC = tested on: HOP-62 NSCLC
U251 CNS = tested on: U251 CNS
HCC-2998 colon = tested on: HCC-2998 colon
UACC-62 melanoma = tested on: UACC-62 melanoma
T-47D breast = tested on: T-47D breast
SK-MEL-2 melanoma = tested on: SK-MEL-2 melanoma
TK-10 renal = tested on: TK-10 renal
A498 renal = tested on: A498 renal
MOLT-4 leukemia = tested on: MOLT-4 leukemia
MALME-3M melanoma = tested on: MALME-3M melanoma
KM12 colon = tested on: KM12 colon
OVCAR-8 ovarian = tested on: OVCAR-8 ovarian
HCT-116 colon = tested on: HCT-116 colon
SW-620 colon = tested on: SW-620 colon
786-0 renal = tested on: 786-0 renal
MCF7 breast = tested on: MCF7 breast
SF-268 CNS = tested on: SF-268 CNS
MDA-N = tested on: MDA-N
A549 NSCLC = tested on: A549 NSCLC
NCI/ADR-RES ovarian = tested on: NCI/ADR-RES ovarian
SK-OV-3 ovarian = tested on: SK-OV-3 ovarian
RPMI-8226 leukemia = tested on: RPMI-8226 leukemia
M14 melanoma = tested on: M14 melanoma
DU-145 prostate = tested on: DU-145 prostate
UO-31 renal = tested on: UO-31 renal
NCI-H23 lung = tested on: NCI-H23 lung
MDA-MB-435 = tested on: MDA-MB-435
ACHN renal = tested on: ACHN renal
SF-539 CNS = tested on: SF-539 CNS
MDA-MB-231 breast = tested on: MDA-MB-231 breast
OVCAR-4 ovarian = tested on: OVCAR-4 ovarian
SK-MEL-5 melanoma = tested on: SK-MEL-5 melanoma
SR leukemia = tested on: SR leukemia
CCRF-CEM leukemia = tested on: CCRF-CEM leukemia
SN12C renal = tested on: SN12C renal
LOX IMVI melanoma = tested on: LOX IMVI melanoma
NCI-H460 lung = tested on: NCI-H460 lung
BT-549 breast = tested on: BT-549 breast
OVCAR-5 ovarian = tested on: OVCAR-5 ovarian
SNB-75 CNS = tested on: SNB-75 CNS
PC-3 prostate = tested on: PC-3 prostate
EKVX NSCLC = tested on: EKVX NSCLC
IGROV1 ovarian = tested on: IGROV1 ovarian
HL-60(TB) leukemia = tested on: HL-60(TB) leukemia
HT29 colon = tested on: HT29 colon

COc1ccccc1N1C(=O)/C(=C\c2cc(OC)c(OC)c(OC)c2)S(=O)(=O)C1c1ccccc1 (centres undefined)
TGI (CAKI-1 renal): > 100 µM
TGI (NCI-H522 lung): 50.7 µM
TGI (HCT-15 colon): > 100 µM
TGI (NCI-H226 lung): > 100 µM
TGI (HS 578T breast): > 100 µM
TGI (SF-295 CNS): > 100 µM
TGI (UACC-257 melanoma): > 100 µM
TGI (K-562 leukemia): > 100 µM
TGI (SNB-19 CNS): > 100 µM
TGI (COLO 205 colon): > 100 µM
TGI (OVCAR-3 ovarian): > 100 µM
TGI (RXF 393 renal): 61.1 µM
TGI (HOP-92 NSCLC): > 100 µM
TGI (SK-MEL-28 melanoma): > 100 µM
TGI (HOP-62 NSCLC): > 100 µM
TGI (U251 CNS): > 100 µM
TGI (HCC-2998 colon): > 100 µM
TGI (UACC-62 melanoma): > 100 µM
TGI (T-47D breast): > 100 µM
TGI (SK-MEL-2 melanoma): > 100 µM
TGI (TK-10 renal): > 100 µM
TGI (A498 renal): > 100 µM
TGI (MOLT-4 leukemia): > 100 µM
TGI (MALME-3M melanoma): 96.3 µM
TGI (KM12 colon): > 100 µM
TGI (OVCAR-8 ovarian): > 100 µM
TGI (HCT-116 colon): > 100 µM
TGI (SW-620 colon): > 100 µM
TGI (786-0 renal): > 100 µM
TGI (MCF7 breast): > 100 µM
TGI (SF-268 CNS): > 100 µM
TGI (MDA-N): 48.3 µM
TGI (A549 NSCLC): > 100 µM
TGI (NCI/ADR-RES ovarian): 72.1 µM
TGI (SK-OV-3 ovarian): 76.5 µM
TGI (RPMI-8226 leukemia): 57.1 µM
TGI (M14 melanoma): > 100 µM
TGI (DU-145 prostate): > 100 µM
TGI (UO-31 renal): > 100 µM
TGI (NCI-H23 lung): > 100 µM
TGI (MDA-MB-435): 41.3 µM
TGI (ACHN renal): > 100 µM
TGI (SF-539 CNS): 68 µM
TGI (MDA-MB-231 breast): > 100 µM
TGI (OVCAR-4 ovarian): > 100 µM
TGI (SK-MEL-5 melanoma): > 100 µM
TGI (SR leukemia): > 100 µM
TGI (CCRF-CEM leukemia): 61.2 µM
TGI (SN12C renal): > 100 µM
TGI (LOX IMVI melanoma): > 100 µM
TGI (NCI-H460 lung): > 100 µM
TGI (BT-549 breast): > 100 µM

CN(C)CCN1C(=O)c2ccccc2C1(O)c1ccc(Cl)cc1 (centres undefined)
TGI (CAKI-1 renal): > 100 µM
TGI (HCT-15 colon): > 100 µM
TGI (NCI-H226 lung): > 100 µM
TGI (HS 578T breast): > 100 µM
TGI (SF-295 CNS): > 100 µM
TGI (UACC-257 melanoma): 63.9 µM
TGI (OVCAR-5 ovarian): > 100 µM
TGI (K-562 leukemia): > 100 µM
TGI (SNB-19 CNS): > 100 µM
TGI (COLO 205 colon): > 100 µM
TGI (OVCAR-3 ovarian): > 100 µM
TGI (SNB-75 CNS): > 100 µM
TGI (PC-3 prostate): > 100 µM
TGI (RXF 393 renal): 77.5 µM
TGI (SK-MEL-28 melanoma): > 100 µM
TGI (HOP-62 NSCLC): > 100 µM
TGI (U251 CNS): > 100 µM
TGI (EKVX NSCLC): > 100 µM
TGI (HCC-2998 colon): > 100 µM
TGI (UACC-62 melanoma): > 100 µM
TGI (T-47D breast): > 100 µM
TGI (TK-10 renal): > 100 µM
TGI (MOLT-4 leukemia): > 100 µM
TGI (IGROV1 ovarian): > 100 µM
TGI (MALME-3M melanoma): 70.7 µM
TGI (KM12 colon): > 100 µM
TGI (OVCAR-8 ovarian): > 100 µM
TGI (HCT-116 colon): > 100 µM
TGI (SW-620 colon): > 100 µM
TGI (786-0 renal): > 100 µM
TGI (MCF7 breast): > 100 µM
TGI (SF-268 CNS): > 100 µM
TGI (MDA-N): > 100 µM
TGI (A549 NSCLC): > 100 µM
TGI (NCI/ADR-RES ovarian): > 100 µM
TGI (HL-60(TB) leukemia): > 100 µM
TGI (SK-OV-3 ovarian): > 100 µM
TGI (RPMI-8226 leukemia): > 100 µM
TGI (M14 melanoma): > 100 µM
TGI (DU-145 prostate): > 100 µM
TGI (UO-31 renal): > 100 µM
TGI (NCI-H23 lung): > 100 µM
TGI (MDA-MB-435): > 100 µM
TGI (ACHN renal): > 100 µM
TGI (MDA-MB-231 breast): > 100 µM
TGI (OVCAR-4 ovarian): > 100 µM
TGI (SK-MEL-5 melanoma): 67.2 µM
TGI (CCRF-CEM leukemia): > 100 µM
TGI (HT29 colon): > 100 µM
TGI (SN12C renal): > 100 µM
TGI (NCI-H460 lung): > 100 µM
TGI (BT-549 breast): > 100 µM
